Measurements taken from article PMC3188543, “The Anti-interferon Activity of Conserved Viral dUTPase ORF54 is Essential for an Effective MHV-68 Infection” (PLoS Pathogens, 2011).

Target: T1, murine cellular dUTPase (Mus musculus, UniProt Q9CQ43)
T1 construct: gene Dut; FLAG-tagged, expressed in 293T, anti-FLAG immunopurified, 3xFLAG peptide eluted; tag kept; homotrimer
T1 sequence (Q9CQ43 1-162): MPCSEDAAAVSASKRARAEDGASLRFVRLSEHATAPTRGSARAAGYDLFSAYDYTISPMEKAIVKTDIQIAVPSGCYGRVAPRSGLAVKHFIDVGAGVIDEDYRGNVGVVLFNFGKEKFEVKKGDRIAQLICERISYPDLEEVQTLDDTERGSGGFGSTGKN
Test: dUTP hydrolysis, read out by PCR with remaining dUTP in place of dTTP (gel)
Assay type: biochemical
Conditions: pH 7.5, 37 C, MgCl2, DTT, BSA; 5 mM dUTP stock; 0-25 h

## O=c1ccn([C@H]2C[C@H](O)[C@@H](COP(=O)(O)OP(=O)(O)OP(=O)(O)O)O2)c(=O)[nH]1 [dUTP]
  dUTP hydrolysis, read out by PCR with remaining dUTP in place of dTTP (gel): used to determine the presence of functional dUTP after incubation
